Assay results reported in PubChem BioAssay AID248 (DTP/NCI, 2004).
“And” between values parts separate entries of the source, which are not always exact repeats. Equal values may be shown once. Inconclusive results and toxic doses are left out. Rule as the data show it: active = T/C of 150% or more; inactive = T/C below 125%.

System: L1210 leukemia ip in BDF1 mice, survival T/C
Experiment: NCI In Vivo Anticancer Drug Screen. Data for tumor model L1210 Leukemia (intraperitoneal) in B6D2F1 (BDF1) mice
Conditions: higher = longer survival
In short: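 Transplantable tumor model; survival measured in treated vs vehicle control mice. Value = treated/control.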

Measured: T/C

O=NN(CCCl)C(=O)NCCCl
inactive: endpoint: mean survival time, dose: 0.09 mg/kg/injection, schedule: Q01DX009 (ip), vehicle: saline 96 % of control | endpoint: mean survival time, dose: 0.09 mg/kg/injection, schedule: Q01DX009 (oral), vehicle: saline 100 % of control | endpoint: mean survival time, dose: 0.09 mg/kg/injection, schedule: Q## X024 (oral), vehicle: saline 102 % of control | endpoint: mean survival time, dose: 0.18 mg/kg/injection, schedule: Q01DX005 (ip), vehicle: saline 94 % of control | endpoint: mean survival time, dose: 0.18 mg/kg/injection, schedule: Q01DX009 (ip), vehicle: saline 101 % of control | endpoint: mean survival time, dose: 0.18 mg/kg/injection, schedule: Q01DX009 (oral), vehicle: saline 102 % of control | endpoint: mean survival time, dose: 0.18 mg/kg/injection, schedule: Q## X008 (ip), vehicle: saline 102 % of control | endpoint: mean survival time, dose: 0.18 mg/kg/injection, schedule: Q## X024 (oral), vehicle: saline 98 % of control | endpoint: mean survival time, dose: 0.32 mg/kg/injection, schedule: Q01DX001 (ip), vehicle: other 98 % of control | endpoint: mean survival time, dose: 0.36 mg/kg/injection, schedule: Q01DX Z (ip), vehicle: carboxymethylcellulose (CMC) 104 % of control | endpoint: mean survival time, dose: 0.37 mg/kg/injection, schedule: Q01DX001 (ip), vehicle: saline 104 % of control | endpoint: mean survival time, dose: 0.37 mg/kg/injection, schedule: Q01DX005 (ip), vehicle: saline 103 % of control | endpoint: mean survival time, dose: 0.37 mg/kg/injection, schedule: Q01DX005 (oral), vehicle: saline 93 % of control | endpoint: mean survival time, dose: 0.37 mg/kg/injection, schedule: Q01DX009 (ip), vehicle: saline 101 % of control | endpoint: mean survival time, dose: 0.37 mg/kg/injection, schedule: Q01DX009 (oral), vehicle: saline 97 % of control | endpoint: mean survival time, dose: 0.37 mg/kg/injection, schedule: Q01DX009 (sc), vehicle: saline 97 % of control | endpoint: mean survival time, dose: 0.37 mg/kg/injection, schedule: Q01DX015 (ip), vehicle: saline 115 % of control | endpoint: mean survival time, dose: 0.37 mg/kg/injection, schedule: Q## X003 (ip), vehicle: saline 107 % of control | endpoint: mean survival time, dose: 0.37 mg/kg/injection, schedule: Q## X008 (ip), vehicle: saline 109 % of control | endpoint: mean survival time, dose: 0.37 mg/kg/injection, schedule: Q## X024 (ip), vehicle: saline 110 % of control | endpoint: mean survival time, dose: 0.37 mg/kg/injection, schedule: Q## X024 (oral), vehicle: saline 100 % of control | endpoint: mean survival time, dose: 0.45 mg/kg/injection, schedule: Q01DX009 (ip), vehicle: saline + alcohol 99 % of control and 107 % of control | endpoint: mean survival time, dose: 0.63 mg/kg/injection, schedule: Q01DX001 (ip), vehicle: other 107 % of control | endpoint: mean survival time, dose: 0.73 mg/kg/injection, schedule: Q01DX Z (ip), vehicle: carboxymethylcellulose (CMC) 107 % of control | endpoint: mean survival time, dose: 0.75 mg/kg/injection, schedule: Q01DX001 (ip), vehicle: saline 105 % of control | endpoint: mean survival time, dose: 0.75 mg/kg/injection, schedule: Q01DX001 (sc), vehicle: saline 105 % of control | endpoint: mean survival time, dose: 0.75 mg/kg/injection, schedule: Q01DX005 (ip), vehicle: saline 108 % of control | endpoint: mean survival time, dose: 0.75 mg/kg/injection, schedule: Q01DX005 (oral), vehicle: saline 101 % of control | endpoint: mean survival time, dose: 0.75 mg/kg/injection, schedule: Q01DX009 (oral), vehicle: saline 116 % of control | endpoint: mean survival time, dose: 0.75 mg/kg/injection, schedule: Q01DX009 (sc), vehicle: saline 104 % of control | endpoint: mean survival time, dose: 0.75 mg/kg/injection, schedule: Q## X003 (ip), vehicle: saline 108 % of control | endpoint: mean survival time, dose: 0.75 mg/kg/injection, schedule: Q## X008 (ip), vehicle: saline 114 % of control | endpoint: mean survival time, dose: 0.75 mg/kg/injection, schedule: Q## X024 (oral), vehicle: saline 113 % of control | endpoint: mean survival time, dose: 1.0 mg/kg/injection, schedule: Q01DX Z (oral), vehicle: saline 117 % of control | endpoint: mean survival time, dose: 1.0 mg/kg/injection, schedule: Q04DX002 (ip), vehicle: saline + alcohol 105 % of control and 107 % of control | endpoint: mean survival time, dose: 1.0 mg/kg/injection, schedule: Q04DX004 (ip), vehicle: saline 106 % of control | endpoint: mean survival time, dose: 1.25 mg/kg/injection, schedule: Q01DX001 (ip), vehicle: other 101 % of control | endpoint: mean survival time, dose: 1.5 mg/kg/injection, schedule: Q01DX001 (ip), vehicle: saline 107 % of control | endpoint: mean survival time, dose: 1.5 mg/kg/injection, schedule: Q01DX001 (sc), vehicle: saline 107 % of control | endpoint: mean survival time, dose: 1.5 mg/kg/injection, schedule: Q01DX005 (oral), vehicle: saline 103 % of control | endpoint: mean survival time, dose: 1.5 mg/kg/injection, schedule: Q## X003 (ip), vehicle: saline 112 % of control | endpoint: mean survival time, dose: 1.75 mg/kg/injection, schedule: Q07DX Z (oral), vehicle: saline 105 % of control | endpoint: mean survival time, dose: 2.0 mg/kg/injection, schedule: Q01DX001 (ip), vehicle: Klucel (hydroxypropylcellulose) (HPC) 110 % of control | endpoint: mean survival time, dose: 2.0 mg/kg/injection, schedule: Q01DX001 (ip), vehicle: distilled water + alcohol 107 % of control | endpoint: mean survival time, dose: 2.0 mg/kg/injection, schedule: Q01DX001 (ip), vehicle: other 107 % of control and 111 % of control | endpoint: mean survival time, dose: 2.0 mg/kg/injection, schedule: Q01DX006 (iv), vehicle: saline 115 % of control | endpoint: mean survival time, dose: 2.0 mg/kg/injection, schedule: Q04DX002 (ip), vehicle: saline + alcohol 114 % of control | endpoint: mean survival time, dose: 2.0 mg/kg/injection, schedule: Q04DX004 (ip), vehicle: saline 118 % of control | endpoint: mean survival time, dose: 2.5 mg/kg/injection, schedule: Q01DX001 (ip), vehicle: other 114 % of control | endpoint: mean survival time, dose: 3.0 mg/kg/injection, schedule: Q01DX001 (ip), vehicle: saline 112 % of control | endpoint: mean survival time, dose: 3.0 mg/kg/injection, schedule: Q03DX Z (oral), vehicle: saline 117 % of control | endpoint: mean survival time, dose: 3.0 mg/kg/injection, schedule: Q## X003 (oral), vehicle: saline 112 % of control | endpoint: mean survival time, dose: 3.12 mg/kg/injection, schedule: Q01DX001 (ip), vehicle: saline 101 % of control and 106 % of control | endpoint: mean survival time, dose: 3.5 mg/kg/injection, schedule: Q07DX Z (oral), vehicle: saline 111 % of control | endpoint: mean survival time, dose: 5.0 mg/kg/injection, schedule: Q07DX003 (ip), vehicle: saline 104 % of control | endpoint: mean survival time, dose: 6.25 mg/kg/injection, schedule: Q01DX001 (ip), vehicle: saline 108 % of control and 110 % of control | endpoint: mean survival time, dose: 6.75 mg/kg/injection, schedule: Q03HX032 (ip), vehicle: saline + alcohol 103 % of control | endpoint: mean survival time, dose: 6.75 mg/kg/injection, schedule: Q## X032 (ip), vehicle: saline + alcohol 103 % of control | endpoint: mean survival time, dose: 12.0 mg/kg/injection, schedule: Q## X Z (ip), vehicle: saline 103 % of control | endpoint: mean survival time, dose: 12.5 mg/kg/injection, schedule: Q01DX001 (ip), vehicle: saline 118 % of control | endpoint: mean survival time, dose: 16.0 mg/kg/injection, schedule: Q01DX009 (ip), vehicle: carboxymethylcellulose (CMC) 102 % of control | endpoint: mean survival time, dose: 18.0 mg/kg/injection, schedule: Q## X006 (ip), vehicle: saline 116 % of control | endpoint: mean survival time, dose: 24.0 mg/kg/injection, schedule: Q01DX005 (ip), vehicle: saline 106 % of control | endpoint: mean survival time, dose: 24.0 mg/kg/injection, schedule: Q01DX005 (oral), vehicle: saline 119 % of control | endpoint: mean survival time, dose: 24.0 mg/kg/injection, schedule: Q01DX006 (ip), vehicle: saline 109 % of control | endpoint: mean survival time, dose: 24.0 mg/kg/injection, schedule: Q01DX009 (ip), vehicle: saline 117 % of control | endpoint: mean survival time, dose: 24.0 mg/kg/injection, schedule: Q01DX009 (oral), vehicle: saline 116 % of control | endpoint: mean survival time, dose: 24.0 mg/kg/injection, schedule: Q01DX009 (sc), vehicle: saline 117 % of control | endpoint: mean survival time, dose: 36.0 mg/kg/injection, schedule: Q01DX006 (ip), vehicle: saline 98 % of control | endpoint: mean survival time, dose: 40.0 mg/kg/injection, schedule: Q04DX004 (ip), vehicle: saline 94 % of control | endpoint: mean survival time, dose: 48.0 mg/kg/injection, schedule: Q01DX001 (ip), vehicle: Klucel (hydroxypropylcellulose) (HPC) 116 % of control | endpoint: mean survival time, dose: 48.0 mg/kg/injection, schedule: Q01DX006 (ip), vehicle: saline 94 % of control | endpoint: mean survival time, dose: 48.0 mg/kg/injection, schedule: Q## X024 (ip), vehicle: saline 119 % of control | endpoint: mean survival time, dose: 62.0 mg/kg/injection, schedule: Q04DX002 (ip), vehicle: saline + alcohol 107 % of control and 111 % of control | endpoint: mean survival time, dose: 64.0 mg/kg/injection, schedule: Q01DX Z (oral), vehicle: saline 94 % of control | endpoint: mean survival time, dose: 79.0 mg/kg/injection, schedule: Q01DX001 (oral), vehicle: saline 118 % of control | endpoint: mean survival time, dose: 88.0 mg/kg/injection, schedule: Q01DX001 (ip), vehicle: other 116 % of control | endpoint: mean survival time, dose: 96.0 mg/kg/injection, schedule: Q03DX Z (oral), vehicle: saline 108 % of control | endpoint: mean survival time, dose: 112.0 mg/kg/injection, schedule: Q07DX Z (oral), vehicle: saline 106 % of control | endpoint: mean survival time, dose: 128.0 mg/kg/injection, schedule: Q01DX001 (ip), vehicle: Klucel (hydroxypropylcellulose) (HPC) 106 % of control | endpoint: mean survival time, dose: 128.0 mg/kg/injection, schedule: Q01DX001 (ip), vehicle: other 98 % of control | endpoint: mean survival time, dose: 256.0 mg/kg/injection, schedule: Q01DX001 (ip), vehicle: Klucel (hydroxypropylcellulose) (HPC) 96 % of control | endpoint: mean survival time, dose: 256.0 mg/kg/injection, schedule: Q01DX001 (ip), vehicle: other 104 % of control | endpoint: median survival time, dose: 0.75 mg/kg/injection, schedule: Q01DX009 (ip), vehicle: saline 105 % of control | endpoint: median survival time, dose: 1.25 mg/kg/injection, schedule: Q01DX009 (ip), vehicle: saline 100 % of control and 112 % of control | endpoint: median survival time, dose: 24.0 mg/kg/injection, schedule: Q01DX009 (ip), vehicle: saline 95 % of control | endpoint: median survival time, dose: 30.0 mg/kg/injection, schedule: Q01DX005 (ip), vehicle: saline + alcohol 94 % of control and 102 % of control | endpoint: median survival time, dose: 30.0 mg/kg/injection, schedule: Q01DX009 (ip), vehicle: saline + alcohol 93 % of control
